The text below walks through data of patent publication US20230271938A1, “BENZIMIDAZOLES FOR USE IN THE TREATMENT OF CANCER AND INFLAMMATORY DISEASES” (Capella Therapeutics, Inc., priority 2015, published 2023).

One test has as its target BTK (Homo sapiens, UniProt Q06187). Nature of the test: Inhibition of BTK kinase. Conditions: 1% DMSO. The class given is biochemical. An excerpt:
(§1) The Z′-LYTE® biochemical assay is a fluorescence-based, coupled-enzyme assay based on the differential sensitivity of phosphorylated and non-phosphorylated peptides to proteolytic cleavage. A peptide substrate for a kinase is labeled with two fluorophores, one at each end, to form a FRET pair.
(§2) In the primary reaction, the kinase transfers the gamma-phosphate of ATP to a single tyrosine, serine, or threonine residue in the synthetic FRET-peptide substrate. In the secondary reaction, a site-specific protease recognizes and cleaves non-phosphorylated FRET-peptides. Cleavage disrupts FRET between the donor and acceptor fluorophores on the FRET-peptide, whereas uncleaved, phosphorylated FRET-peptides maintain FRET. An inhibitory activity of a compound is thus determined from its effect on the cleavage of the synthetic FRET-peptide substrate.
(§3) Inhibition of BMX, BTK, ITK, and TXK kinases by a test compound is determined in 50 mM HEPES, pH 7.5, 0.01% BRIJ-35, 10 mM MgCl2, and 1 mM EGTA in the presence of 1% DMSO by volume.
(§4) Inhibition of BMX, BTK, PIK3C-D, ITK, TEC, and TXK kinases by compound A2 was measured using one of the assays described in Examples 2A and 3A.

The target of another test is T1, BMX (Homo sapiens, UniProt P51813).
T1 sequence (P51813 1-675): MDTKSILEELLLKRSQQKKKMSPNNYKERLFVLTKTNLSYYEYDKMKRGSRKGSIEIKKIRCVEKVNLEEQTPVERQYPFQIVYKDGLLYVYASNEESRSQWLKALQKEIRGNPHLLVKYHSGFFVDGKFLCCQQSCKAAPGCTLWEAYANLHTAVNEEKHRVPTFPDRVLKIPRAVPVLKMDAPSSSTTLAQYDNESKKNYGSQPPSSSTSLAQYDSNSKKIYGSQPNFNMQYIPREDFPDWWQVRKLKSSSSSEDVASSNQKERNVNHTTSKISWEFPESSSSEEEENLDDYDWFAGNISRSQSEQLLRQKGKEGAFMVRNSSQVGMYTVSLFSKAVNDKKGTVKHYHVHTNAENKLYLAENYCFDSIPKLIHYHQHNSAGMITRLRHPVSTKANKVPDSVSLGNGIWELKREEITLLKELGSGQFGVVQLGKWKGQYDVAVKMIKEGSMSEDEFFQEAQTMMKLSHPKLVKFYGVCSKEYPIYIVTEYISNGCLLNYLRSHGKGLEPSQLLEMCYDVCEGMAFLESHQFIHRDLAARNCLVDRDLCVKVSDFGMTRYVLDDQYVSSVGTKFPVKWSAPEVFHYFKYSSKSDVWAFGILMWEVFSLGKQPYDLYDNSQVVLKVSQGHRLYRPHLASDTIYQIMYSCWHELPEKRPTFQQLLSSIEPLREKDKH
Nature of the test: Inhibition of BMX kinase. Format: biochemical. Conditions: 1% DMSO.
Description: as §1, §2, §3, §4

Sequence of BTK (Q06187 whole entry): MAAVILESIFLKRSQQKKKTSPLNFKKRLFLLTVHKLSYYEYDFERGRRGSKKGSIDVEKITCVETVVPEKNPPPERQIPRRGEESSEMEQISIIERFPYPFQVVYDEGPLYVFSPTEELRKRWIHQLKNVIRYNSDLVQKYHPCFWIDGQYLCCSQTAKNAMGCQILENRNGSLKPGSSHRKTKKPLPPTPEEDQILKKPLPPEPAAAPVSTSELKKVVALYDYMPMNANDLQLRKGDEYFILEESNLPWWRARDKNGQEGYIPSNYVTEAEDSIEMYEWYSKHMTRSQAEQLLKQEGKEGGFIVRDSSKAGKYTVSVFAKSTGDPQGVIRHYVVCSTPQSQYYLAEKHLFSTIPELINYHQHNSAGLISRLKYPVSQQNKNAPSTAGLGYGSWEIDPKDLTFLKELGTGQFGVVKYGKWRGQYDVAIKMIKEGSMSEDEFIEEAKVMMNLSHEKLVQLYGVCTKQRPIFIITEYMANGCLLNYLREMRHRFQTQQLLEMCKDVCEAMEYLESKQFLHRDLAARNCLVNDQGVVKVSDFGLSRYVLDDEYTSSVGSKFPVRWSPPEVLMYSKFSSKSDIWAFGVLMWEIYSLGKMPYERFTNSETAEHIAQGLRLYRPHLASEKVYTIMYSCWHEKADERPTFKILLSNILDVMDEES

With `C=CC(=O)N1CCCC[C@@H](n2c(NC(=O)c3ccnc(C)c3)nc3cccc(OC4CCN(C(C)=O)CC4)c32)C1` [Compound A2, (R)-N-(7-((1-acetylpiperidin-4-yl)oxy)-1-(1-acryloylazepan-3-yl)-1H-benzo[d]imidazol-2-yl)-2-methylisonicotinamide], the IC50 against BTK and against BMX was at most 10 nM each time. Besides, the Inhibition result at BTK and on BMX was “A (A represents a value no greater than 10 nM or no less than 90% inhibition)” throughout.
